This is an account of results in ChEMBL document CHEMBL4706640, “Structure-Based Drug Design and Synthesis of PI3Kα-Selective Inhibitor (PF-06843195)” (J Med Chem, 2021).

In brackets after ≈: the same amount, converted by molar mass. Activity calls are given as the source filed them.

Series [1] relates to MCF7. In words: Antitumor activity against human MCF7 cells xenografted in mouse model assessed as tumor growth inhibition. The series is classed as functional, cell-based. In general terms: Xenograft models place foreign cells or tissue in a host animal.
A short description of series [2]: AUC (0 to t) in Wistar Han rat assessed as 2,2-difluoroethyl (3S)-3-{[2'-amino-5-fluoro-2-(morpholin-4-yl)-4,5'-bipyrimidin-6-yl]amino}-3-(hydroxymethyl)pyrrolidine-1-carboxylate level at 2.3 mg/kg, iv. The series is classed as ADME, organism-based. On the set-up: dose 2.3 mg/kg. As to conditions: in vivo.
The nature of series [3]: AUC (0 to t) in Wistar Han rat assessed as 2,2-difluoroethyl (3S)-3-{[2'-amino-5-fluoro-2-(morpholin-4-yl)-4,5'-bipyrimidin-6-yl]amino}-3-(hydroxymethyl)pyrrolidine-1-carboxylate level at […], po. The format is ADME, organism-based. As to conditions: in vivo.
Series [4] is described as follows: Volume of distribution at steady state in Wistar Han rat at 2.3 mg/kg, iv. The series is classed as ADME, organism-based. As to conditions: in vivo, read-out: Vdss.
Series [5] is described as follows: Half life in Wistar Han rat at 2.3 mg/kg, iv. The format is ADME, organism-based. As to conditions: in vivo.
The test system of series [6] is MCF7. In words: Antitumor activity against human MCF7 cells xenografted in mouse model assessed as tumor growth regression in presence of fulvestrant. The format is functional, cell-based.
Series [7] is described as follows: Half life in rat intestinal S9 fraction assessed as 2,2-difluoroethyl (3S)-3-{[2'-amino-5-fluoro-2-(morpholin-4-yl)-4,5'-bipyrimidin-6-yl]amino}-3-(hydroxymethyl)pyrrolidine-1-carboxylate level by enzymatic hydrolysis assay. The series is classed as ADME, subcellular, Intestine.
Series [8] in a line: Plasma clearance in Wistar Han rat at 2.3 mg/kg, iv. The series is classed as ADME, organism-based.
Series [9] is described as follows: Oral bioavailability in Wistar Han rat at […]. The series is classed as ADME, organism-based. The note with it: in vivo.
Series [10] concerns MCF7. In words: Antitumor activity against human MCF7 cells xenografted in mouse model assessed as tumor growth regression in presence of fulvestrant and palbociclib. The format is functional, cell-based.
Series [11] can be described thus: Thermodynamic solubility of compound at pH 7.4. The format is physicochemical. As to conditions: buffer, read-out: Therm_solubility.
The nature of series [12]: AUC (0 to t) in Wistar Han rat at 2.3 mg/kg, iv. The series is classed as ADME, organism-based. The arrangement: dose 2.3 mg/kg. As to conditions: in vivo.
Series [13] can be described thus: Tmax in Wistar Han rat assessed as 2,2-difluoroethyl (3S)-3-{[2'-amino-5-fluoro-2-(morpholin-4-yl)-4,5'-bipyrimidin-6-yl]amino}-3-(hydroxymethyl)pyrrolidine-1-carboxylate level at […], po. The note with it: in vivo. The format is ADME, organism-based.
The nature of series [14]: Kinetic solubility of compound at pH 7.4 after 24 hrs by LC/MS/MS analysis. The series is classed as physicochemical. As to conditions: buffer, read-out: Kinetic_solubility.
Series [15] concerns MCF7. In words: Antitumor activity against human MCF7 cells xenografted in mouse model assessed as tumor growth regression in presence of palbociclib. The format is functional, cell-based.
The nature of series [16]: Half life in human intestinal S9 fraction assessed as 2,2-difluoroethyl (3S)-3-{[2'-amino-5-fluoro-2-(morpholin-4-yl)-4,5'-bipyrimidin-6-yl]amino}-3-(hydroxymethyl)pyrrolidine-1-carboxylate level by enzymatic hydrolysis assay. The format is ADME, subcellular, Intestine.
Series [17] relates to MDA-MB-361. In words: Antitumor activity against human MDA-MB-361 cells xenografted in mouse model assessed as tumor growth inhibition. The format is functional, cell-based.
The nature of series [18]: Cmax in Wistar Han rat assessed as 2,2-difluoroethyl (3S)-3-{[2'-amino-5-fluoro-2-(morpholin-4-yl)-4,5'-bipyrimidin-6-yl]amino}-3-(hydroxymethyl)pyrrolidine-1-carboxylate level at […], po. As to conditions: in vivo. The series is classed as ADME, organism-based.
A short description of series [19]: Cmax in Wistar Han rat at […], po. The format is ADME, organism-based. The note with it: in vivo.
A short description of series [20]: Tmax in Wistar Han rat at […], po. The note with it: in vivo. The format is ADME, organism-based.
Series [21] in a line: AUC (0 to t) in Wistar Han rat at […], po. The format is ADME, organism-based. The note with it: in vivo.

A word on the half-life: it is the time needed for the level to fall by half in the phase considered. A high value points to slow decline. What is called clearance is the volume of plasma or blood freed of the substance per unit of time. Read a low clearance as a low capacity for elimination. A word on the bioavailability: it is dose-corrected exposure relative to a reference, in per cent. Low readings indicate little systemic uptake, high ones much systemic uptake. One may read the AUC(0-t) as the area under the concentration-time curve up to a stated or last time point. Low readings indicate less exposure, high ones more exposure. What is called Tmax is the time at which the peak concentration occurs. In general, Cmax refers to the highest concentration seen after dosing. With `Nc1ncc(-c2nc(N3CCOCC3)nc(N[C@@]3(COP(=O)(O)O)CCN(C(=O)OCC(F)F)C3)c2F)cn1`, the TGI result in series [1] and in series [17] was “Active” throughout. For the same compound, the AUCt was found to be 900 ng·h/mL in [2] and 1500 ng·h/mL in series [3]. Also, the Vd in series [4] came to 0.34 L/kg. In addition, the half-life in series [5] was 16.8 min. The outcome in series [6], in series [10] and in series [15] was Active. The t1/2 in [7] turned out to be 86 min; in [16] it was 14 min. In addition, the clearance in series [8] came out at 89 mL/min/kg. For the same compound, the bioavailability in series [9] amounted to 0.14%. Besides, the solubility thermodynamic in [11] came to 6200 µg/mL (≈ 10.7 mM). For the same compound, the AUC(0-t) in series [12] came to 430 ng·h/mL; in series [21], 2.9 ng·h/mL. Besides, the Tmax in [13] amounted to 120 min; in series [20], 10.2 min. In addition, the solubility kinetic at 24 h in series [14] was found to be 310 µg/mL (≈ 0.536 mM). Besides, the Cmax amounted to 290 ng/mL in [18] and 4.3 ng/mL in [19].
